From PubChem BioAssay AID248 (DTP/NCI, 2004)
Values joined by “and” are separate entries in the source; they are usually repeats but may differ in a detail not shown here. Identical values can stand only once. Inconclusive results and toxic doses are left out. Cut-off read from the data, not from the text of the source: active = T/C of 150% or more; inactive = T/C below 125%.

Tested on: L1210 leukemia ip in BDF1 mice, survival T/C
Experiment: NCI In Vivo Anticancer Drug Screen. Data for tumor model L1210 Leukemia (intraperitoneal) in B6D2F1 (BDF1) mice
Details: endpoint: mean survival time, higher = longer survival
Outline: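 Each compound was tested against a transplantable tumor grown in mice. The endpoint was survival, with treated animals benchmarked against vehicle controls as a simple ratio.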

[1] = dose: 100.0 mg/kg/injection, schedule: Q04DX003 (ip), vehicle: Klucel (hydroxypropylcellulose) (HPC)
[2] = dose: 200.0 mg/kg/injection, schedule: Q04DX003 (ip), vehicle: Klucel (hydroxypropylcellulose) (HPC)
[3] = dose: 100.0 mg/kg/injection, schedule: Q01DX009 (ip), vehicle: saline with Tween-80

Measured: T/C

O=C(Nc1cccc(C2=NCCN2)c1)c1cc(C(=O)Nc2cccc(C3=NCCN3)c2)cc(C(=O)Nc2cccc(C3=NCCN3)c2)c1
inactive: dose: 1.9 mg/kg/injection, schedule: Q01DX Z (ip), vehicle: carboxymethylcellulose (CMC) 97 % of control | dose: 2.8 mg/kg/injection, schedule: Q01DX Z (ip), vehicle: carboxymethylcellulose (CMC) 101 % of control | dose: 4.3 mg/kg/injection, schedule: Q01DX Z (ip), vehicle: carboxymethylcellulose (CMC) 97 % of control | dose: 6.5 mg/kg/injection, schedule: Q01DX Z (ip), vehicle: carboxymethylcellulose (CMC) 97 % of control and 103 % of control | dose: 9.7 mg/kg/injection, schedule: Q01DX Z (ip), vehicle: carboxymethylcellulose (CMC) 100 % of control | dose: 14.6 mg/kg/injection, schedule: Q01DX Z (ip), vehicle: carboxymethylcellulose (CMC) 96 % of control | dose: 22.0 mg/kg/injection, schedule: Q01DX Z (ip), vehicle: carboxymethylcellulose (CMC) 97 % of control | dose: 22.0 mg/kg/injection, schedule: Q01DX Z (ip), vehicle: saline 98 % of control | dose: 33.0 mg/kg/injection, schedule: Q01DX Z (ip), vehicle: saline 100 % of control

CC(C)COC(=O)COc1ccccc1
inactive: dose: 100.0 mg/kg/injection, schedule: Q04DX003 (ip), vehicle: saline with Tween-80 104 % of control | dose: 200.0 mg/kg/injection, schedule: Q04DX003 (ip), vehicle: saline with Tween-80 104 % of control | dose: 400.0 mg/kg/injection, schedule: Q04DX003 (ip), vehicle: saline with Tween-80 86 % of control

Cc1cc(C#N)cc(C)c1N
inactive: dose: 75.0 mg/kg/injection, schedule: Q01DX001 (ip), vehicle: other 100 % of control | dose: 150.0 mg/kg/injection, schedule: Q01DX001 (ip), vehicle: other 95 % of control | dose: 300.0 mg/kg/injection, schedule: Q01DX001 (ip), vehicle: other 105 % of control

CN=C(Nc1ccccn1)c1ccc(NC(=O)c2ccc(C(=O)Nc3ccc(C(=NC)Nc4ccccn4)cc3)cc2)cc1
inactive: dose: 1.87 mg/kg/injection, schedule: Q01DX015 (ip), vehicle: methylcellulose (MC) 95 % of control | dose: 3.75 mg/kg/injection, schedule: Q01DX015 (ip), vehicle: methylcellulose (MC) 96 % of control | dose: 7.5 mg/kg/injection, schedule: Q01DX015 (ip), vehicle: methylcellulose (MC) 108 % of control | dose: 15.0 mg/kg/injection, schedule: Q01DX015 (ip), vehicle: methylcellulose (MC) 101 % of control

C[N+]1(CC(=O)c2ccc(CCc3ccc(C(=O)C[N+]4(C)CCCCC4)cc3)cc2)CCCCC1
inactive: dose: 0.78 mg/kg/injection, schedule: Q01DX009 (ip), vehicle: saline 117 % of control | dose: 0.78 mg/kg/injection, schedule: Q04DX002 (ip), vehicle: saline 101 % of control | dose: 1.56 mg/kg/injection, schedule: Q01DX009 (ip), vehicle: saline 106 % of control | dose: 1.56 mg/kg/injection, schedule: Q04DX002 (ip), vehicle: saline 95 % of control | dose: 3.12 mg/kg/injection, schedule: Q01DX009 (ip), vehicle: saline 92 % of control | dose: 3.12 mg/kg/injection, schedule: Q04DX002 (ip), vehicle: saline 98 % of control and 105 % of control

Cc1ccc(S(=O)(=O)OCC2CCC(COS(=O)(=O)c3ccc(C)cc3)O2)cc1 (configuration not stated)
inactive: [1] 103 % of control | [2] 100 % of control

O=C(Nc1ccc(S(=O)(=O)F)cc1)c1ccc(COc2ccc([N+](=O)[O-])cc2Cl)cc1
inactive: [3] 92 % of control | dose: 200.0 mg/kg/injection, schedule: Q01DX009 (ip), vehicle: saline with Tween-80 94 % of control | dose: 400.0 mg/kg/injection, schedule: Q01DX009 (ip), vehicle: saline with Tween-80 94 % of control

CC1SC(=S)N(c2ccc(Cl)cc2)C1=O (configuration not stated)
inactive: dose: 100.0 mg/kg/injection, schedule: Q01DX009 (ip), vehicle: Klucel (hydroxypropylcellulose) (HPC) 115 % of control | [1] 98 % of control | dose: 200.0 mg/kg/injection, schedule: Q01DX009 (ip), vehicle: Klucel (hydroxypropylcellulose) (HPC) 110 % of control | [2] 106 % of control

Nc1ncnc2c1nnn2C1CC(CO)C(O)C1O (configuration not stated)
inactive: dose: 50.0 mg/kg/injection, schedule: Q04DX003 (ip), vehicle: other 112 % of control | dose: 67.0 mg/kg/injection, schedule: Q01DX009 (ip), vehicle: saline with Tween-80 122 % of control | dose: 67.0 mg/kg/injection, schedule: Q04DX003 (ip), vehicle: other 106 % of control | [3] 118 % of control | dose: 100.0 mg/kg/injection, schedule: Q04DX003 (ip), vehicle: other 114 % of control | dose: 150.0 mg/kg/injection, schedule: Q01DX009 (ip), vehicle: saline with Tween-80 118 % of control | dose: 150.0 mg/kg/injection, schedule: Q04DX003 (ip), vehicle: other 111 % of control | dose: 200.0 mg/kg/injection, schedule: Q04DX003 (ip), vehicle: other 123 % of control

NC(N)=N/N=C(/c1ccccc1)c1ccc(Cl)cc1
inactive: dose: 15.0 mg/kg/injection, schedule: Q01DX Z (ip), vehicle: saline 90 % of control | dose: 30.0 mg/kg/injection, schedule: Q01DX Z (ip), vehicle: saline 92 % of control | dose: 60.0 mg/kg/injection, schedule: Q01DX Z (ip), vehicle: saline 97 % of control | dose: 60.0 mg/kg/injection, schedule: Q01DX Z (oral), vehicle: saline 95 % of control | dose: 120.0 mg/kg/injection, schedule: Q01DX Z (ip), vehicle: saline 110 % of control | dose: 120.0 mg/kg/injection, schedule: Q01DX Z (oral), vehicle: saline 92 % of control | dose: 240.0 mg/kg/injection, schedule: Q01DX Z (ip), vehicle: saline 108 % of control | dose: 240.0 mg/kg/injection, schedule: Q01DX Z (oral), vehicle: saline 107 % of control | dose: 480.0 mg/kg/injection, schedule: Q01DX010 (oral), vehicle: saline 96 % of control | dose: 960.0 mg/kg/injection, schedule: Q01DX010 (oral), vehicle: saline 91 % of control

CSc1ncnc2c1ncn2N(CCCCN=C=S)C(C)=O
inactive: dose: 12.5 mg/kg/injection, schedule: Q01DX001 (ip), vehicle: saline with Tween-80 107 % of control | dose: 25.0 mg/kg/injection, schedule: Q01DX001 (ip), vehicle: saline with Tween-80 98 % of control | dose: 50.0 mg/kg/injection, schedule: Q01DX001 (ip), vehicle: saline with Tween-80 103 % of control

C[n+]1cccc2cc(C(=O)O)ccc21
inactive: dose: 50.0 mg/kg/injection, schedule: Q01DX009 (ip), vehicle: acetone 101 % of control | dose: 100.0 mg/kg/injection, schedule: Q01DX009 (ip), vehicle: acetone 97 % of control | dose: 200.0 mg/kg/injection, schedule: Q01DX009 (ip), vehicle: acetone 93 % of control

N\C([S-])=N/N=C\C(=N/N=C(\N)[S-])C(O)C(O)C(O)CO.[Pd+2] (configuration not stated)
inactive: dose: 100.0 mg/kg/injection, schedule: Q04DX003 (ip), vehicle: saline 93 % of control | dose: 200.0 mg/kg/injection, schedule: Q04DX003 (ip), vehicle: saline 91 % of control

CCCCCCCCCCSS(=O)(=O)O
inactive: dose: 100.0 mg/kg/injection, schedule: Q01DX001 (ip), vehicle: other 98 % of control | dose: 400.0 mg/kg/injection, schedule: Q01DX001 (ip), vehicle: other 86 % of control
